Source: patent US6514510B1, “Insecticidal and miticidal compositions” (BASF Aktiengesellschaft, priority 1996, dated 2003)

How the values were obtained:
[1] = system: Kanzawa spider mite (Tetranychus kanzawai kishida) which are resistant to Compound A; experiment: Miticidal effect against female imagines of Kanzawa spider mite resistant to Compound A (leaf disk spray test); conditions: for LC50 (ppm): single active ingredient, female imago, Compound A-resistant colony, mortality two days after spray treatment, probit method
Procedure: Round leaf disks (2 cm diameter) are cut out of a first leaf of kidney bean by using a leaf punch and 4 sheets of the leaf disks are placed on wet sanitary cotton on a PVC cup of 8 cm diameter.
Each PVC cup is sprayed with 3.5 ml of the test solution by using a rotary spray tower (manufactured by Mizuho Scientific Co., Ltd.) and stored in a constant temperature chamber held at 25±° C. (32 individuals are tested per concentration, 4-5 concentrations are evaluated per formulation and 2 performances are repeated). Two days after treatment, the number of living and dead female imagines of Kanzawa spider mite (Tetranychus kanzawai kishida) on the leaf disk is investigated and the mortality (%) is calculated according to the formula shown hereinbelow. From these mortality data, the LC50 values are obtained by conventional probit method. [formula]
For the above-mentioned values larger than 100, the larger value indicates a stronger synergistic action. For the value equal to 100, an additive action is indicated. For the values less than 100, the lesser value indicates a larger antagonistic action. A more detailed description of the calculation of the co-toxicity coefficient by the above-mentioned Sun and Johnson's method is the following. […] [formula]

[2] = system: susceptible strain of spider mite; experiment: Effect of Compound A against a susceptible strain of spider mite; type: in vivo; conditions: not mentioned in the table

CC1(C)C(C=C(Cl)Cl)C1C(=O)OCc1cccc(Oc2ccccc2)c1 (stereo not drawn) [Permethrin, 3-phenoxybenzyl (1RS,3RS; 1RS,3RS)-3-(2,2-dichlorovinyl)-2,2-dimethylcyclopropanecarboxylate]
LC50 (ppm) [1]: 440 ppm

CCOCn1c(-c2ccc(Cl)cc2)c(C#N)c(Br)c1C(F)(F)F [Compound A, 4-bromo-2-(4-chlorophenyl)-1-(ethoxymethyl)-5-(trifluoromethyl)-pyrrole-3-carbonitrile]
LC50 value [2]: about 5 ppm | resistance against Compound A ([1]; resistant strain versus susceptible strain, LC50 values): ~300 fold | LC50 (ppm) [1]: 1500 ppm

CC(C)[C@H](Nc1ccc(C(F)(F)F)cc1Cl)C(=O)OC(C#N)c1cccc(Oc2ccccc2)c1 (stereo partly drawn) [Fluvalinate, (RS)-α-cyano-3-phenoxy-benzyl N-(2-chloro-α,α,α,α-trifluoro-p-tolyl)-D-valinate]
LC50 (ppm) [1]: 180 ppm

CC1(C)C(C(=O)OC(C#N)c2cccc(Oc3ccccc3)c2)C1(C)C (racemic) [Fenpropathrin, (RS)-α-cyano-3-phenoxybenzyl 2,2,3,3-tetramethyl-cyclopropanecarboxylate]
LC50 (ppm) [1]: 290 ppm

CC1(C)[C@H](C(=O)O[C@@H](C#N)c2cccc(Oc3ccccc3)c2)[C@@H]1/C=C(\Cl)C(F)(F)F (racemic) [Cyhalothrin, (RS)-α-cyano-3-phenoxybenzyl (Z)-(1RS,3RS)-3-(2-chloro-3,3,3-trifluoropropenyl)-2,2-dimethylcyclopropanecarboxylate]
LC50 (ppm) [1]: 590 ppm

Cc1c(COC(=O)[C@@H]2[C@H](/C=C(\Cl)C(F)(F)F)C2(C)C)cccc1-c1ccccc1 (racemic) [Bifenthrin, 2-methylbiphenyl-3-ylmethyl (Z)-(1RS,3RS)-3-(2-chloro-3,3,3-trifluoroprop-1-enyl)-2,2-dimethylcyclopropanecar-boxylate]
LC50 (ppm) [1]: 20 ppm

CC1(C)C(C=C(Cl)Cl)C1C(=O)OC(C#N)c1cccc(Oc2ccccc2)c1 (racemic) [Cypermethrin, (RS)-α-cyano-3-phenoxybenzyl (1RS,3RS,1RS,3RS)-3-(2,2-dichlorovinyl)-2,2-dimethylcyclopro-panecarboxylate]
LC50 (ppm) [1]: 2500 ppm

CCOc1ccc(C(C)(C)COCc2cccc(Oc3ccccc3)c2)cc1 [Ethofenprox, 2-(4-ethoxyphenyl)-2-methylpropyl 3-phenoxybenzyl ether]
LC50 (ppm) [1]: 620 ppm

CC1(C)C(C=C(Cl)Cl)C1C(=O)OC(C#N)c1ccc(F)c(Oc2ccccc2)c1 (racemic) [Cyfluthrin, (RS)-α-cyano4-fluoro-3-phenoxybenzyl (1RS,3RS; 1RS,3SR)-3-(2,2-dichlorovinyl)-2,2-dimethylcyclopropanecarboxylate]
LC50 (ppm) [1]: 1500 ppm
